Assay results: patent US20240225978A1, “METHODS AND COMPOSITIONS FOR PHARMACOLOGICAL TREATMENT OF BLEPHAROPTOSIS” (priority 2021, published 2024)
Counter-ions that a name gives are not always drawn. Values belong to the molecule of their own block, whether it stands above or below them.

Legend:
cosmetic blepharoptosis [1] = experiment: Case study of cosmetic blepharoptosis treatment with naphazoline 0.1%; type: in vivo, human
Procedure: They also had brow asymmetry due to compensatory right eyebrow elevation, a separate cosmetic concern. One drop of an ophthalmic solution containing naphazoline 0.1% was administered to the right eye. After 30 minutes, the eyelid was over-elevated with an MRD-1 of 5.5 mm due to continued compensatory brow elevation of the subject's right eyebrow (FIG. 5b). […] Three hours after drop administration, the eyelid and brow symmetry were maintained (FIG. 5d).

[2] = test system: functional blepharoptosis; experiment: Randomized, double-blinded, controlled study of blepharoptosis treatment with naphazoline 0.1% ophthalmic solution; type: in vivo, human
Procedure: To evaluate the effects of an ophthalmic solution containing an α adrenergic agonist on blepharoptosis, a randomized, double-blinded, controlled study was conducted using naphazoline 0.1%. Participants with either unilateral or bilateral upper eyelid blepharoptosis were randomized to receive either control eye drops (control group) or an ophthalmic solution containing active ingredient naphazoline 0.1% (treatment group).
The composition of the treatment group included naphazoline hydrochloride (concentration 0.1% w/v), sodium chloride, boric acid, calcium chloride, magnesium chloride, potassium chloride, sodium borate, PURITE®, methylcellulose, and purified water. The ophthalmic drops of the control group were composed of all of the preceding compounds except for naphazoline hydrochloride.
Baseline external photographs of all participants were obtained before eye drop administration. Visual field and contrast sensitivity testing were also tested at baseline. Visual field testing was conducted using an OCULUS Easyfield® perimeter. Contrast sensitivity was tested using a Pelli-Robson Contrast Sensitivity Chart (Pelli D G, Robson J, Wilkins A J. The design of a new letter chart for measuring contrast sensitivity. Clin Vision Sci. 1988; 2187-99). After one eye drop was administered to one or both eyes depending on the presence of unilateral or bilateral blepharoptosis, a second photo was obtained 30 minutes later. After 60 minutes, visual field and contrast sensitivity tests were repeated. After 120 minutes, a third and final photo was obtained.
MRD-1 is the distance in millimeters from the upper eyelid margin to the light reflex within the pupil. Measurements were made using Image J software (US National Institutes of Health, Bethesda, MD, U.S.A., http://imagej.nih.gov/ij) by a single designated, blinded investigator. The pupil diameter was also measured at all time points. Secondary effects were recorded and included subject-reported eye irritation, pain, blurry vision, light sensitivity, as well as examiner-noted eye injection, eyelid retraction, and pupil diameter. MRD-1 at the two post-administration time points constituted the primary endpoint. Secondary endpoints included visual field assessment and contrast sensitivity testing.

cosmetic blepharoptosis [3] = experiment: Controlled study of topical naphazoline 0.1% to improve cosmetic blepharoptosis; type: in vivo, human
Procedure: A comparative study was conducted to investigate the effect of an ophthalmic solution containing naphazoline 0.1% on cosmetic blepharoptosis. Two groups, the control group and treatment group each consisting of 5 subjects, were matched in terms of age and gender. The control group received one drop of normal saline while the treatment group received one drop of an ophthalmic solution containing naphazoline 0.1%. At both 30 minutes and 120 minutes after drop administration, external photographs were obtained and analyzed using Image J imaging software. MRD-1 and the distance between the upper and lower eyelid margins were measured to quantitatively assess cosmetic blepharoptosis. Secondary effects were also recorded, including conjunctival injection, eye pain or irritation, light sensitivity, and pupil size.

[4] = test system: functional blepharoptosis; experiment: Randomized, controlled study of blepharoptosis treatment with tetrahydrozoline 0.1% ophthalmic solution; type: in vivo, human
Procedure: To evaluate the effects of an ophthalmic solution containing an α adrenergic agonist (tetrahydrozoline) on blepharoptosis, a randomized, controlled study was conducted. Participants with both unilateral or bilateral blepharoptosis were randomized to receive either the control eye drop or an ophthalmic solution containing active ingredient tetrahydrozoline 0.1%. Subjects and drop administrators were blinded to the intervention. […] The composition of the treatment group included tetrahydrozoline hydrochloride (concentration 0.1% w/v), sodium chloride, boric acid, calcium chloride, magnesium chloride, potassium chloride, sodium borate, PURITE®, methylcellulose, and purified water. The ophthalmic drops of the control group were composed of all of the preceding compounds except for tetrahydrozoline hydrochloride. Baseline external photographs of all participants were obtained before eye drop administration. After one eye drop was administered, a second photo was obtained 30 minutes later. After 90 minutes, a third and final photo was obtained. The pupil diameter in millimeters was also measured in photos at all time points. Measurements were made using Image J software by a single designated, blinded investigator. Secondary effects from the intervention were recorded including subject-reported eye irritation, pain, blurry vision, light sensitivity, as well as examiner-noted eye injection, eyelid retraction, and pupil size change from baseline.

[5] = test system: α adrenergic receptors within Müller's muscle; conditions: ophthalmic use for pupil dilation; background statement; cited from earlier work

Secondary Effects (%) ([2]; proportion of subjects, one drop 0.1%, control 9.5, P 0.17): 10.5%
difference in secondary effects, including pupil size, between the two groups (cosmetic blepharoptosis [3]; 0.1% ophthalmic solution): no difference
Pupil Size Δ 30 minutes (mean, %) (cosmetic blepharoptosis [3]; one drop 0.1%, control 6.7, P 0.37): 10%
Structure (SMILES): c1ccc2c(CC3=NCCN3)cccc2c1 [Naphazoline, naphazoline hydrochloride]
eyelid and brow symmetry after brow relaxation (cosmetic blepharoptosis [1]; one drop 0.1%, FIG. 5c (120 minutes)): achieved both eyelid and brow symmetry
eyelid and brow symmetry three hours after drop administration (cosmetic blepharoptosis [1]; one drop 0.1%, three hours): maintained
MRD-1 of the right eye (cosmetic blepharoptosis [1]; subject, one drop 0.1% ophthalmic solution to the right eye, after 30 minutes, baseline 2.5 mm, eyelid over-elevated due to compensatory brow elevation): 5.5 mm
difference in proportion of individuals who reported minor side effects, treatment vs control group ([2]; 0.1% ophthalmic solution): not statistically significant
visual field and contrast sensitivity improvement compared to the control group ([2]; 0.1% ophthalmic solution, 60 minutes after drop): greater
improvement in MRD-1 compared to the control group ([2]; 0.1% ophthalmic solution, at 30 minutes and 120 minutes): statistically significant improvement
Contrast Sensitivity Δ (mean) ([2]; Pelli-Robson chart, 60 minutes after one drop 0.1%, baseline 1.29, control 0.03, P 0.03): 0.69
MRD1 Δ 30 minutes (mean, mm) ([2]; one drop of 0.1% w/v ophthalmic solution, 19 subjects, baseline MRD1 0.93 mm, 30 minutes after drop, control 0.02, P <0.001): 2.15 mm
MRD1 Δ 120 minutes (mean, mm) ([2]; one drop of 0.1% w/v ophthalmic solution, 19 subjects, 120 minutes after drop, control 0.01, P 0.009): 2.08 mm
overall effect on eyelids, visual field, contrast sensitivity and cosmetic appearance ([2]; one drop of ophthalmic composition 0.1% administered twice daily (as summarised in b67 for Example 1)): resulted in eyelid elevation, improvement of a superior visual field defect, increased contrast sensitivity, and improved cosmetic appearance of the eyes, eyelids, and eyebrows
VF Δ (mean, % correct) ([2]; visual field, OCULUS Easyfield perimeter, 60 minutes after one drop 0.1%, baseline 33.8, control 2.1, P <0.001): 56.6 % correct
improvement in MRD-1 and eyelid separation compared to the control group (cosmetic blepharoptosis [3]; 0.1% ophthalmic solution, 30 and 120 minutes): statistically significant improvement
MRD1 Δ 30 minutes (mean, %) (cosmetic blepharoptosis [3]; one drop 0.1% ophthalmic solution, 5 subjects, baseline MRD1 2.4 mm, control (normal saline) 3.8, P 0.01): 42%
MRD1 Δ 120 minutes (mean, %) (cosmetic blepharoptosis [3]; one drop 0.1% ophthalmic solution, 5 subjects, control 1.9, P 0.02): 38%
Eyelid Margin Distance Δ 120 minutes (mean, mm) (cosmetic blepharoptosis [3]; one drop 0.1%, control 0.02, P 0.03): 1.33 mm
Minor Side Effects (%) (cosmetic blepharoptosis [3]; one drop 0.1%, control 20, P 0.49): 20%
Eyelid Margin Distance Δ 30 minutes (mean, mm) (cosmetic blepharoptosis [3]; one drop 0.1%, distance between upper and lower eyelid margins, control 0.03, P 0.009): 1.45 mm

Pupil Size Δ 30 minutes (mean, %) ([4]; one drop 0.1%, control 5.8, P 0.09): 9.3%
Structure (SMILES): c1ccc2c(c1)CCCC2C1=NCCN1 (centres unmarked) [Tetrahydrozoline, tetrahydrozoline hydrochloride]
difference in proportion of individuals who reported minor side effects, treatment vs control group ([4]; 0.1% ophthalmic solution): not statistically significant
pupillary size change compared to the control ([4]; 0.1% ophthalmic solution): greater in the treatment group compared to the control, however, this change was not statistically significant
blepharoptosis improvement compared to the control group ([4]; 0.1% ophthalmic solution, both time points): statistically significant at both time points
Minor Side Effects (%) ([4]; one drop 0.1%, control 2.1, P 0.07): 6.7%
MRD1 Δ 30 minutes (mean, mm) ([4]; one drop of 0.1% w/v ophthalmic solution, 11 subjects, baseline MRD1 0.85 mm, control 0.04, P 0.01): 2.01 mm
MRD1 Δ 120 minutes (mean, mm) ([4]; one drop of 0.1% w/v ophthalmic solution, 11 subjects, control 0.02, P 0.009): 1.97 mm

Structure (SMILES): CNC[C@H](O)c1cccc(O)c1 [phenylephrine]
duration of pupillary dilation and disabling light sensitivity [5]: up to seven hours
duration of the effect of eyelid elevation [5]: less than ten minutes
